Measured values published in patent US9963442B2, “Pyridones as herbicides” (E I DU PONT DE NEMOURS AND COMPANY, priority 2014, dated 2018).

What was measured:
Assay type in all cases: in vivo
kochia (Kochia scoparia) = assay: Test A preemergence, directed soil spray; conditions: approx. 10 days
In short: (§1)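 Visual injury score, 0–100 scale (100 = complete control), versus untreated plants after ~10 days greenhouse. Pre: directed soil spray on seeded loam/sand. Post: 2–10 cm plants, 1–2 leaves. Solvent/surfactant formulation.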

[1] = test system: barnyardgrass (Echinochloa crus-galli); assay: Test A preemergence, directed soil spray; conditions: approx. 10 days
In short: as §1

[2] = test system: pigweed (Amaranthus retroflexus); assay: Test A preemergence, directed soil spray; conditions: approx. 10 days
In short: as §1

[3] = test system: giant foxtail (Setaria faberii); assay: Test A preemergence, directed soil spray; conditions: approx. 10 days
In short: as §1

[4] = test system: ragweed (common ragweed, Ambrosia elatior); assay: Test A preemergence, directed soil spray; conditions: approx. 10 days
In short: as §1

[5] = test system: Italian ryegrass (Lolium multiflorum); assay: Test A preemergence, directed soil spray; conditions: approx. 10 days
In short: as §1

rice (Oryza sativa) = assay: Test B flooded paddy test; design: key: 0 = no effect, 100 = complete control; conditions: Flood, 250 g ai/ha applied to paddy water at 2-leaf stage; visually evaluated after 13 to 15 days; scale 0 (no effect) to 100 (complete control)
In short: (§2)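 Plants were grown to the 2-leaf stage, then pots were flooded to 3 cm above the soil and compound was applied directly into the paddy water, with that depth held throughout. After 13 to 15 days in a greenhouse, injury was rated visually against untreated controls on a 0 to 100 scale (100 = complete control).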

[6] = test system: barnyardgrass (Echinochloa crus-galli); assay: Test B flooded paddy test; design: key: 0 = no effect, 100 = complete control; conditions: Flood, 250 g ai/ha applied to paddy water at 2-leaf stage; visually evaluated after 13 to 15 days; scale 0 (no effect) to 100 (complete control)
In short: as §2

[7] = test system: sedge, umbrella (small-flower umbrella sedge, Cyperus difformis); assay: Test B flooded paddy test; design: key: 0 = no effect, 100 = complete control; conditions: Flood, 250 g ai/ha applied to paddy water at 2-leaf stage; visually evaluated after 13 to 15 days; scale 0 (no effect) to 100 (complete control)
In short: as §2

[8] = test system: ducksalad (Heteranthera limosa); assay: Test B flooded paddy test; design: key: 0 = no effect, 100 = complete control; conditions: Flood, 250 g ai/ha applied to paddy water at 2-leaf stage; visually evaluated after 13 to 15 days; scale 0 (no effect) to 100 (complete control)
In short: as §2

[9] = test system: large (Lg) crabgrass (Digitaria sanguinalis); assay: Test C preemergence; conditions: scale 0 to 100, 0 is no effect, 100 is complete control
From the text: (§3) Seeds of plant species selected from blackgrass (Alopecurus myosuroides), Italian ryegrass (Lolium multiflorum), winter wheat (Triticum aestivum), galium (catchweed bedstraw, Galium aparine), corn (Zea mays), large (Lg) crabgrass (Digitaria sanguinalis), giant foxtail (Setaria faberii), johnsongrass (Sorghum halepense), lambsquarters (Chenopodium album), morningglory (Ipomoea coccinea), yellow nutsedge (Cyperus esculentus), pigweed (Amaranthus retroflexus), ragweed (common ragweed, Ambrosia elatior), soybean (Glycine max), barnyardgrass (Echinochloa crus-galli), oilseed rape (Brassica napus), waterhemp (common waterhemp, Amaranthus rudis), and velvetleaf (Abutilon theophrasti) were planted into a blend of loam soil and sand and treated preemergence with test chemicals formulated in a non-phytotoxic solvent mixture which included a surfactant. At the same time, plants selected from these crop and weed species and also chickweed (common chickweed, Stellaria media), kochia (Kochia scoparia), and wild oat (Avena fatua), were planted in pots containing Sunshine Redi-Earth® planting medium comprising spaghnum peat moss, vermiculite, starter nutrients and dolomitic limestone and treated with postemergence applications of test chemicals formulated in the same manner. Plants ranged in height from 2 to 18 cm (1- to 4-leaf stage) for postemergence treatments. Treated plants and controls were maintained in a greenhouse for 13 to 15 days, after which time all species were compared to controls and visually evaluated. Plant response ratings, summarized in Table C, are based on a scale of 0 to 100 where 0 is no effect and 100 is complete control. A dash (-) response means no test result.

[10] = test system: blackgrass (Alopecurus myosuroides); assay: Test C preemergence; conditions: scale 0 to 100, 0 is no effect, 100 is complete control
From the text: as §3

corn (Zea mays) = assay: Test C preemergence; conditions: scale 0 to 100, 0 is no effect, 100 is complete control
From the text: as §3

[11] = test system: oilseed rape (Brassica napus); assay: Test C preemergence; conditions: scale 0 to 100, 0 is no effect, 100 is complete control
From the text: as §3

[12] = test system: morningglory (Ipomoea coccinea); assay: Test C preemergence; conditions: scale 0 to 100, 0 is no effect, 100 is complete control
From the text: as §3

[13] = test system: barnyardgrass (Echinochloa crus-galli); assay: Test C preemergence; conditions: scale 0 to 100, 0 is no effect, 100 is complete control
From the text: as §3

[14] = test system: winter wheat (Triticum aestivum); assay: Test C preemergence; conditions: scale 0 to 100, 0 is no effect, 100 is complete control
From the text: as §3

[15] = test system: galium (catchweed bedstraw, Galium aparine); assay: Test C preemergence; conditions: scale 0 to 100, 0 is no effect, 100 is complete control
From the text: as §3

SMILES: O=c1cccc(Oc2ncc(Cl)cn2)n1-c1ccc(Cl)cc1 [Compound 1, 1-(4-chlorophenyl)-6-[(5-chloro-2-pyrimidinyl)oxy]-2(1H)-pyridinone]
- Plant response rating (0 to 100 scale, 0 no effect, 100 complete control), Kochia (kochia (Kochia scoparia); 125 g ai/ha): 40
- Plant response rating (0 to 100 scale, 0 no effect, 100 complete control), Kochia (kochia (Kochia scoparia); 500 g ai/ha): 100
- Plant response rating (0 to 100 scale, 0 no effect, 100 complete control), Barnyardgrass ([1]; 125 g ai/ha): 30
- Plant response rating (0 to 100 scale, 0 no effect, 100 complete control), Barnyardgrass ([1]; 500 g ai/ha): 100
- Plant response rating (0 to 100 scale, 0 no effect, 100 complete control), Pigweed ([2]; 125 g ai/ha): 40
- Plant response rating (0 to 100 scale, 0 no effect, 100 complete control), Pigweed ([2]; 500 g ai/ha): 100
- Plant response rating (0 to 100 scale, 0 no effect, 100 complete control), Foxtail, Giant ([3]; 125 g ai/ha): 90
- Plant response rating (0 to 100 scale, 0 no effect, 100 complete control), Foxtail, Giant ([3]; 500 g ai/ha): 100
- Plant response rating (0 to 100 scale, 0 no effect, 100 complete control), Ragweed ([4]; 125 g ai/ha): 0
- Plant response rating (0 to 100 scale, 0 no effect, 100 complete control), Ragweed ([4]; 500 g ai/ha): 20
- Plant response rating (0 to 100 scale, 0 no effect, 100 complete control), Ryegrass, Italian ([5]; 125 g ai/ha): 0
- Plant response rating (0 to 100 scale, 0 no effect, 100 complete control), Ryegrass, Italian ([5]; 500 g ai/ha): 20
- Plant response rating, Rice (rice (Oryza sativa)): 10
- Plant response rating, Barnyardgrass [6]: 20
- Plant response rating, Sedge, Umbrella [7]: 65
- Plant response rating, Ducksalad [8]: 45
- Plant response rating, Crabgrass, Large ([9]; 16 g ai/ha): 5
- Plant response rating, Crabgrass, Large ([9]; 31 g ai/ha): 70
- Plant response rating, Crabgrass, Large ([9]; 62 g ai/ha): 98
- Plant response rating, Crabgrass, Large ([9]; 125 g ai/ha): 100
- Plant response rating, Blackgrass ([10]; 16 g ai/ha): 0
- Plant response rating, Blackgrass ([10]; 31 g ai/ha): 20
- Plant response rating, Blackgrass ([10]; 62 g ai/ha): 25
- Plant response rating, Blackgrass ([10]; 125 g ai/ha): 85
- Plant response rating, Corn (corn (Zea mays); 16 g ai/ha): 0
- Plant response rating, Corn (corn (Zea mays); 31 g ai/ha): 0
- Plant response rating, Corn (corn (Zea mays); 62 g ai/ha): 0
- Plant response rating, Corn (corn (Zea mays); 125 g ai/ha): 0
- Plant response rating, Oilseed Rape ([11]; 16 g ai/ha): 0
- Plant response rating, Oilseed Rape ([11]; 31 g ai/ha): 0
- Plant response rating, Oilseed Rape ([11]; 62 g ai/ha): 10
- Plant response rating, Oilseed Rape ([11]; 125 g ai/ha): 60
- Plant response rating, Morningglory ([12]; 16 g ai/ha): 0
- Plant response rating, Morningglory ([12]; 31 g ai/ha): 0
- Plant response rating, Morningglory ([12]; 62 g ai/ha): 0
- Plant response rating, Morningglory ([12]; 125 g ai/ha): 15
- Plant response rating, Barnyardgrass ([13]; 16 g ai/ha): 5
- Plant response rating, Barnyardgrass ([13]; 31 g ai/ha): 20
- Plant response rating, Barnyardgrass ([13]; 62 g ai/ha): 40
- Plant response rating, Barnyardgrass ([13]; 125 g ai/ha): 75
- Plant response rating, Wheat ([14]; 16 g ai/ha): 0
- Plant response rating, Wheat ([14]; 31 g ai/ha): 0
- Plant response rating, Wheat ([14]; 62 g ai/ha): 0
- Plant response rating, Wheat ([14]; 125 g ai/ha): 0
- Plant response rating, Galium ([15]; 16 g ai/ha): 90
- Plant response rating, Galium ([15]; 31 g ai/ha): 0
- Plant response rating, Galium ([15]; 62 g ai/ha): 0
- Plant response rating, Galium ([15]; 125 g ai/ha): 40

SMILES: O=c1cccc(Oc2ncc(Cl)cn2)n1-c1ncc(Cl)cn1 [Compound 6]
- Plant response rating (0 to 100 scale, 0 no effect, 100 complete control), Kochia (kochia (Kochia scoparia); 31 g ai/ha): 60
- Plant response rating (0 to 100 scale, 0 no effect, 100 complete control), Kochia (kochia (Kochia scoparia); 125 g ai/ha): 100
- Plant response rating (0 to 100 scale, 0 no effect, 100 complete control), Barnyardgrass ([1]; 31 g ai/ha): 20
- Plant response rating (0 to 100 scale, 0 no effect, 100 complete control), Barnyardgrass ([1]; 125 g ai/ha): 70
- Plant response rating (0 to 100 scale, 0 no effect, 100 complete control), Pigweed ([2]; 31 g ai/ha): 80
- Plant response rating (0 to 100 scale, 0 no effect, 100 complete control), Pigweed ([2]; 125 g ai/ha): 100
- Plant response rating (0 to 100 scale, 0 no effect, 100 complete control), Foxtail, Giant ([3]; 31 g ai/ha): 60
- Plant response rating (0 to 100 scale, 0 no effect, 100 complete control), Foxtail, Giant ([3]; 125 g ai/ha): 100
- Plant response rating (0 to 100 scale, 0 no effect, 100 complete control), Ragweed ([4]; 31 g ai/ha): 70
- Plant response rating (0 to 100 scale, 0 no effect, 100 complete control), Ragweed ([4]; 125 g ai/ha): 80
- Plant response rating (0 to 100 scale, 0 no effect, 100 complete control), Ryegrass, Italian ([5]; 31 g ai/ha): 0
- Plant response rating (0 to 100 scale, 0 no effect, 100 complete control), Ryegrass, Italian ([5]; 125 g ai/ha): 10
- Plant response rating, Rice (rice (Oryza sativa)): 0
- Plant response rating, Barnyardgrass [6]: 0
- Plant response rating, Sedge, Umbrella [7]: 85
- Plant response rating, Ducksalad [8]: 80
- Plant response rating, Crabgrass, Large ([9]; 16 g ai/ha): 5
- Plant response rating, Crabgrass, Large ([9]; 31 g ai/ha): 50
- Plant response rating, Crabgrass, Large ([9]; 62 g ai/ha): 90
- Plant response rating, Crabgrass, Large ([9]; 125 g ai/ha): 100
- Plant response rating, Blackgrass ([10]; 16 g ai/ha): 0
- Plant response rating, Blackgrass ([10]; 31 g ai/ha): 0
- Plant response rating, Blackgrass ([10]; 62 g ai/ha): 5
- Plant response rating, Blackgrass ([10]; 125 g ai/ha): 5
- Plant response rating, Corn (corn (Zea mays); 16 g ai/ha): 0
- Plant response rating, Corn (corn (Zea mays); 31 g ai/ha): 5
- Plant response rating, Corn (corn (Zea mays); 62 g ai/ha): 0
- Plant response rating, Corn (corn (Zea mays); 125 g ai/ha): 5
- Plant response rating, Oilseed Rape ([11]; 16 g ai/ha): 30
- Plant response rating, Oilseed Rape ([11]; 31 g ai/ha): 90
- Plant response rating, Oilseed Rape ([11]; 62 g ai/ha): 98
- Plant response rating, Oilseed Rape ([11]; 125 g ai/ha): 98
- Plant response rating, Morningglory ([12]; 16 g ai/ha): 5
- Plant response rating, Morningglory ([12]; 31 g ai/ha): 5
- Plant response rating, Morningglory ([12]; 62 g ai/ha): 20
- Plant response rating, Morningglory ([12]; 125 g ai/ha): 55
- Plant response rating, Barnyardgrass ([13]; 16 g ai/ha): 0
- Plant response rating, Barnyardgrass ([13]; 31 g ai/ha): 5
- Plant response rating, Barnyardgrass ([13]; 62 g ai/ha): 10
- Plant response rating, Barnyardgrass ([13]; 125 g ai/ha): 40
- Plant response rating, Wheat ([14]; 16 g ai/ha): 0
- Plant response rating, Wheat ([14]; 31 g ai/ha): 0
- Plant response rating, Wheat ([14]; 62 g ai/ha): 5
- Plant response rating, Wheat ([14]; 125 g ai/ha): 0
- Plant response rating, Galium ([15]; 16 g ai/ha): 80
- Plant response rating, Galium ([15]; 31 g ai/ha): 90
- Plant response rating, Galium ([15]; 62 g ai/ha): 90
- Plant response rating, Galium ([15]; 125 g ai/ha): 90
